Consider 13 molecules from PubChem BioAssay (NCI).

Common to all, as to assay: NCI anticancer screen, dose series, 48 h
The subject of test [1] is HOP-62 NSCLC.
Test [2] deals with OVCAR-8 ovarian.
The subject of test [3] is A549 NSCLC.
The test system of test [4] is HCT-15 colon.
Test [5] concerns SK-OV-3 ovarian.
Test [6] has as its system MOLT-4 leukemia.
For test [7], the system named is K-562 leukemia.
The subject of test [8] is OVCAR-3 ovarian.
For test [9], the system named is NCI/ADR-RES ovarian.
The test system of test [10] is SNB-19 CNS.

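Protocol summary: plate cells (96-well), add compound at 5 concentrations, incubate 48 h, interpolate endpoints linearly. TGI: total growth inhibition.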 Where only a bound is given, the exact number is not on record here.

On to `COc1ccc(C2SCC(=O)N2N=C2NC(=O)CC(=O)N2)cc1` (configuration not stated), for which the TGI in [1], in test [2], in test [3], in test [4], in [5] and in test [6] was over 100 µM each time. For the same molecule, the TGI in test [7], in [8] and in [9] was over 100 µM throughout.
For the molecule `CCOC(=O)NNC(=O)NCCNC(=O)NNC(=O)OCC`, the TGI in test [2], in test [3], in test [4], in [10], in [5] and in [6] was over 100 µM each time. For the same molecule, the TGI in [7], in [8] and in test [9] was over 100 µM throughout.
Consider `CC12CC3c4ccccc4CN1C3(c1ccccc1)OC2=O` (configuration not stated), for which the TGI in test [1], in [2], in [3], in test [4], in test [10] and in test [5] was over 100 µM each time. The TGI in [6] and in test [9] was over 100 µM each time.
`Cc1cc(Br)c(N2C3=C(CC4=C2CCCC4=O)C(=O)CCC3)c(Br)c1`: the TGI in [2], in test [3], in [4], in test [10], in [5] and in test [6] was over 100 µM in each case. In addition, the TGI in [7], in [8] and in test [9] was over 100 µM in each case.
Consider `NCCC1(N)CCNCC1`, for which the TGI in test [2], in [3], in [4], in test [10], in test [5] and in test [6] was over 100 µM each time. Besides, the TGI in [7] and in [9] was over 100 µM throughout.
With `N/C(CC/C(N)=N\O)=N\O`, the TGI in test [1], in [3], in [4], in test [10], in test [6] and in test [7] was over 100 µM in each case. In addition, the TGI in test [8] and in test [9] was over 100 µM each time.
In the case of `N#Cc1c(-c2ccco2)c2c(n(C3OC(CO)C(O)C(O)C3O)c1=S)CCCC2` (configuration not stated), the TGI in test [1], in test [2], in test [3], in test [4], in test [5] and in test [6] was over 100 µM in each case. Besides, the TGI in [8] and in test [9] was over 100 µM each time.
As to `CSc1n[nH]c(N)c1C(=O)Nc1ccc(Cl)cc1`, the TGI in [2], in test [3], in test [4], in [10], in test [5] and in [6] was over 100 µM in each case. The TGI in test [7], in test [8] and in [9] was over 100 µM each time.
With `N#CI1OC(=O)c2ccccc21`, the TGI in test [1], in test [2], in test [3], in test [4], in [5] and in test [6] was over 100 µM in each case. Further, the TGI in [7], in test [8] and in [9] was over 100 µM in each case.
Take `CCOC(=O)c1ccc(NC2Oc3cc4c(cc3C(c3cc(OC)c(OC)c(OC)c3)C2C)OCO4)cc1` (configuration not stated): the TGI in test [1] was over 71.4 µM; in test [2], 33 µM; in test [3], over 73.2 µM; in [4], over 54.6 µM; in test [10] it was over 100 µM; in [5], over 21.1 µM. Further, the TGI in test [6] came to 11.5 µM; in [9] it was 8.27 µM.
`COc1ccc2c(c1O)-c1c(OC)c(OC)cc3c1[C@H](C2)[N+](C)(C)CC3`: the TGI in test [2], in test [3], in test [4], in test [10], in test [5] and in test [6] was over 100 µM in each case. Further, the TGI in test [7], in [8] and in [9] was over 100 µM each time.
Consider `COc1ccc(-n2c(CCCC(=O)O)nc3c2C(=O)c2ccccc2C3=O)cc1`, for which the TGI in test [2], in [3], in [4], in test [10], in [5] and in [6] was over 100 µM in each case. For the same molecule, the TGI in test [7] is over 100 µM; in test [8] it was 92.9 µM; in test [9] it was over 100 µM.
In the case of `O=C1CC(NC(=O)C(F)(F)F)c2c(Br)sc(N3CCC(c4ccccc4)CC3)c21` (configuration not stated), the TGI is over 100 µM in test [2]; over 100 µM in test [3]; over 100 µM in test [4]; 78.2 µM in test [10]; over 100 µM in [5]; over 100 µM in test [6]. For the same molecule, the TGI was over 100 µM in test [7], 95.8 µM in [8] and over 100 µM in [9].
